Ends that are not written are not given here. * marks the point of attachment. R1 = nitroxide spin-labeled side chain, CC1(C)C=C(CS*)C(C)(C)N1[O]
How the values were obtained:
[1] = target: MPER segment 662-683 of HXB2 strain HIV-1 gp160 (HIV-1 (HXB2 strain)); test: ITC at 25 °C, MPER peptide with virion membrane-like liposomes injected into 4E10 Fab
[2] = target: MPER segment 662-683 of HXB2 strain HIV-1 gp160 (HIV-1 (HXB2 strain)); test: SPR, intact IgG over membrane-bound MPER, global fit with a two-step conformational change model
[3] = Aqueous solubility of the MPER segment; format: physicochemical
[4] = Stability of MPER adsorption to lipid-enveloped PLGA microparticles in serum-containing medium (confocal imaging); format: physicochemical; conditions: culture medium containing 10% FCS in the presence of DCs, FITC-tagged MPER, qualitative; preliminary studies
liposomes = test: MPER binding to liposomes as a function of membrane composition; conditions: liposomes of DMPC, 4:1 DOPC:DOPG or HIV membrane-mimicking composition; preliminary studies
4E10 antibody = test: SPR (BIAcore) 4E10 binding to MPER variant or spin-labeled peptides on liposomes; conditions: for 4E10 antibody binding to the spin-labeled MPER peptide: membrane-bound spin-labeled peptides, POPC/POPG liposomes; for decrease of 4E10 binding to the lipid-embedded MPER: mutation of N671 to residues occurring in other viral strains

Substance | 4E10 antibody binding to the spin-labeled MPER peptide (4E10 antibody) | decrease of 4E10 binding to the lipid-embedded MPER (4E10 antibody) | other results
4E10 antigen-binding fragment (Fab) |  |  | Kd [1]: 1000 nM; enthalpy change [1]: -25 kcal/mol; entropic energy change (-TDS) [1]: 16.9 kcal/mol
4E10 broadly neutralizing anti-gp41 antibody (intact IgG) |  |  | Kd [2]: 10 nM
ELDKWASLWNWFNITNWLWYIK [MPER] |  |  | solubility in aqueous solutions [3]: can only be solubilized in aqueous solutions in the presence of detergents or lipid vesicles; stability of MPER adsorption [4]: stably adsorbed to lipid-enveloped PLGA microparticles for at least a few hours; order of MPER binding affinity by liposome composition (liposomes): DMPC<DOPC/DOPG<HIV mimic
F673: MPER 662-683 peptide with cysteine substitution and nitroxide spin label R1 at position F673 (ELDKWASLWNWC(R1)NITNWLWYIK) | completely abolished |  | 
N671D: HXB2 MPER single amino acid variant, N671 to D (ELDKWASLWDWFNITNWLWYIK) |  | severely | 
N671G: HXB2 MPER single amino acid variant, N671 to G (ELDKWASLWGWFNITNWLWYIK) |  | severely | 
N671S: HXB2 MPER single amino acid variant, N671 to S (ELDKWASLWSWFNITNWLWYIK) |  | moderately | 
N671T: HXB2 MPER single amino acid variant, N671 to T (ELDKWASLWTWFNITNWLWYIK) |  | severely | 
T676: MPER 662-683 peptide with cysteine substitution and nitroxide spin label R1 at position T676 (ELDKWASLWNWFNIC(R1)NWLWYIK) | completely abolished |  | 
W672: MPER 662-683 peptide with cysteine substitution and nitroxide spin label R1 at position W672 (ELDKWASLWNC(R1)FNITNWLWYIK) | completely abolished |  | 
